Data as given in ChEMBL document CHEMBL1201862, “PubChem BioAssay data set” (2004).
Activity calls are given as the source filed them.

Columns and labels:
[1] = biological target: Cytochrome P450 2C19 (Homo sapiens, UniProt P33261); experiment: Cytochrome panel assay with activity outcomes. Panel member name: p450-cyp2c19 Compounds with AC50 equal or less than 10 uM are considered active; type: functional
[2] = biological target: Cytochrome P450 3A4 (Homo sapiens, UniProt P08684);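 also: CYP3A4 tested as one member of a cytochrome P450 panel screen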
Chain of Cytochrome P450 3A4 (P08684 whole entry): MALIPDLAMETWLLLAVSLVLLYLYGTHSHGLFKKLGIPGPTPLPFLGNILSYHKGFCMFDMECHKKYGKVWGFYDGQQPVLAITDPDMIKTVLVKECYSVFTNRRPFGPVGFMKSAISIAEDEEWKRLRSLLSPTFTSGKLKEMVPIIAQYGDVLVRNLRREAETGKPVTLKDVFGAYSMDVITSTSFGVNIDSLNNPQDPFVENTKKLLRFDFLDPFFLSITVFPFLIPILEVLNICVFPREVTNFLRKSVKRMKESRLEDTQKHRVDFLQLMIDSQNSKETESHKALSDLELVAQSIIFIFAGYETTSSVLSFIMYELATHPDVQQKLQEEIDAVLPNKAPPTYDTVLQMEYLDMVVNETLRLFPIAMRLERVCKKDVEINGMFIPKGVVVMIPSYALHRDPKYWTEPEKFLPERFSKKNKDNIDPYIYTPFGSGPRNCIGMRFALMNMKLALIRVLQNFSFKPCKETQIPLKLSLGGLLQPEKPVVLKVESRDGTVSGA

[3] = biological target: T1, Cytochrome P450 1A2 (Homo sapiens, UniProt P05177)
T1 sequence (P05177 whole entry): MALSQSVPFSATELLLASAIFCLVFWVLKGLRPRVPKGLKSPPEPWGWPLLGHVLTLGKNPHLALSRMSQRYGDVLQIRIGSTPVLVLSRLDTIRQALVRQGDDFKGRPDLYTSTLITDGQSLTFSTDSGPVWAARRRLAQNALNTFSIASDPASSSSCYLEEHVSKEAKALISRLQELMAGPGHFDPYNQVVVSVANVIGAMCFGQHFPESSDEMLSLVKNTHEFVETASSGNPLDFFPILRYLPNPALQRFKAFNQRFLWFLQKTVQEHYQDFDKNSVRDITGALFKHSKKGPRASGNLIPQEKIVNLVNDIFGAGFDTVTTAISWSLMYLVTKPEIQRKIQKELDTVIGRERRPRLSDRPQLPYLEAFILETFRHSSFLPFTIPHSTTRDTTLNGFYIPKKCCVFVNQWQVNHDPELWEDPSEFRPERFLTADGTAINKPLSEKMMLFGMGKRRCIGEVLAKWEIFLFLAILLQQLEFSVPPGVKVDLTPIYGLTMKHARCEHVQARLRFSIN

[4] = biological target: T2, Streptokinase A (Streptococcus pyogenes serotype M1, UniProt P10520); experiment: S. pyogenes streptokinase expression inhibitors, potency, dose response, plasminogen activation absorbance, OD405 (AID 1914); type: functional, Streptococcus pyogenes M1 GAS;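 also: secreted streptokinase activity via plasminogen activation per viability signal from cell pellet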
T2 sequence (P10520 whole entry): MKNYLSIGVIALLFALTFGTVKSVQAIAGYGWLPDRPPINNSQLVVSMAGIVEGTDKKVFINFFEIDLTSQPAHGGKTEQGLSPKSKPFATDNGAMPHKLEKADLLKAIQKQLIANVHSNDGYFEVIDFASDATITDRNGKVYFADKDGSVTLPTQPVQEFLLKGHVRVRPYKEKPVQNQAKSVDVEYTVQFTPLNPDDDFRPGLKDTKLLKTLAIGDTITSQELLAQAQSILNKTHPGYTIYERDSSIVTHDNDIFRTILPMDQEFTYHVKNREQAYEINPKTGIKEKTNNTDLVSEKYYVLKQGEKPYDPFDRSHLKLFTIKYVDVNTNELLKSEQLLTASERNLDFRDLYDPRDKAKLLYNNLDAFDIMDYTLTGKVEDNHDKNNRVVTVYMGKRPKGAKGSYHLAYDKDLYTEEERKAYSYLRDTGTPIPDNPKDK

[5] = tested on: Streptococcus sp. 'group A'; experiment: growth inhibition of control SK(-) GAS strain, dose response, counter-screen for streptokinase expression inhibitor project, luminescence, kanamycin, BacTiterGlo, confirmation (AID 1900); type: functional, organism-based
[6] = tested on: Streptococcus; experiment: Group A Streptococcus viability loss, dose response, counter-screen for streptokinase expression inhibitor project, luminescence, BacTiterGlo (AID 1915); type: functional, organism-based;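 also: potency for reduction of bacterial viability or growth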
[7] = inhibitors of intracellular T. cruzi replication, confirmation, NIH3T3 host cells, beta-gal luminescence (AID 2044); type: functional, cell-based;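 also: intracellular parasites grown in NIH/3T3 mouse fibroblasts as host cells; luminescent beta-galactosidase reporter signal from transgenic T. cruzi replicating inside host cells; inhibitors lower the luminescence signal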
[8] = cytotoxicity toward NIH3T3 fibroblasts, dose response, counter-screen, cell-based, ATP luminescence, mouse fibroblasts (AID 2010); type: functional;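 also: cells exposed to compound for about 90 hours before reading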
[9] = Luminescence Cell-Based Dose Retest to Confirm Inhibitors of Cancer Stem Cells. [Related pubchem assays (depositor defined):AID2717, AID2721]; type: functional; conditions: Homo sapiens
[10] = biological target: Cytochrome P450 2D6 (Homo sapiens, UniProt P10635);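 also: CYP2D6 member of a cytochrome P450 panel assay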
Chain of Cytochrome P450 2D6 (P10635 whole entry): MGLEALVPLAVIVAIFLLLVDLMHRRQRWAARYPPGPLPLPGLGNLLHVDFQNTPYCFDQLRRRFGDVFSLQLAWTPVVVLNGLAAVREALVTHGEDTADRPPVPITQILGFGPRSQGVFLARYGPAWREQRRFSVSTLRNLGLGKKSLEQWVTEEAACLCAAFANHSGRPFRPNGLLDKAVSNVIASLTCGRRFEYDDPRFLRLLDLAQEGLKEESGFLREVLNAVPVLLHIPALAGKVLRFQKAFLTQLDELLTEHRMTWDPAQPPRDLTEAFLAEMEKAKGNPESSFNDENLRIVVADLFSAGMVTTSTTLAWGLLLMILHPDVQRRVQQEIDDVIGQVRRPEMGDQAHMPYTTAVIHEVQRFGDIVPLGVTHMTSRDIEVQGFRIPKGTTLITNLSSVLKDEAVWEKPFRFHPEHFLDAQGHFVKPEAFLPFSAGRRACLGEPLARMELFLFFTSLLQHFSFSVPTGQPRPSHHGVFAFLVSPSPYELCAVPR

[11] = biological target: Cytochrome P450 2C9 (Homo sapiens, UniProt P11712)
Chain of Cytochrome P450 2C9 (P11712 whole entry): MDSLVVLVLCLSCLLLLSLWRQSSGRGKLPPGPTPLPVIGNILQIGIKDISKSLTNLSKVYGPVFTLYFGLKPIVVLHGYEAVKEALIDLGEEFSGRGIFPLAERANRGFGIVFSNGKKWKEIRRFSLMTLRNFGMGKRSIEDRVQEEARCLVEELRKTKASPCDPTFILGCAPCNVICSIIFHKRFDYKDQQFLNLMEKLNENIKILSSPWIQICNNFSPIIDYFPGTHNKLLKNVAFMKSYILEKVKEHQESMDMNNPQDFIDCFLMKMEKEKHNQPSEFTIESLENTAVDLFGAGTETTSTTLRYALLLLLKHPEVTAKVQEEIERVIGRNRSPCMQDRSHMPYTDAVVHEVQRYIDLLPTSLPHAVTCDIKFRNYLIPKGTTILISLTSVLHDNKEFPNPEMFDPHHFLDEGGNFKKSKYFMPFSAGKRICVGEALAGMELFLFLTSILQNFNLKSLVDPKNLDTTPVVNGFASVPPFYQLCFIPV

Chain of Cytochrome P450 2C19 (P33261 whole entry): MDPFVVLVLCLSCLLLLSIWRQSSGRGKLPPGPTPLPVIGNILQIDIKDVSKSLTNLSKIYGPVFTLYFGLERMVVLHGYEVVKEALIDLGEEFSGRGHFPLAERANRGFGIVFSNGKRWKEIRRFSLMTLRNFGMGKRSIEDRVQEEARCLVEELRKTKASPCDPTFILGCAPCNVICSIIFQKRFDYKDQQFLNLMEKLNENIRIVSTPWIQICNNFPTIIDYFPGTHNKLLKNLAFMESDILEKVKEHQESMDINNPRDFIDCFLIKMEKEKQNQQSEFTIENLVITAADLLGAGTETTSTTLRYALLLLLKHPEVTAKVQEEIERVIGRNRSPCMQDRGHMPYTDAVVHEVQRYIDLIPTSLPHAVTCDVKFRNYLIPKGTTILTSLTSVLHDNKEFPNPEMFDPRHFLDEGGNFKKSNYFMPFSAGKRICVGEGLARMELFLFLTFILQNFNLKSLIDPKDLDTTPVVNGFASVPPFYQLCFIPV

## CNC(=O)NC(=O)CSc1nnc(-c2ccco2)n1Cc1ccccc1
[1]; read-out: AC50
  AC50: 35.5 µM (inconclusive)
[2]
  AC50: 22.4 µM (inconclusive)

## N[C@@H](Cn1cc(F)c(=O)[nH]c1=O)C(=O)O
[3]
  AC50: 31.6 µM (inconclusive)

## CC1CCN(c2ccccc2NC(=O)c2ccc(Br)o2)CC1
[4]
  EC50: 43.6 µM (active)
[5]
  EC50: 5.4 µM (active)
[6]
  EC50: 10.3 µM (active)

## O=C(O)CCSc1ccc([N+](=O)[O-])cc1[N+](=O)[O-]
[4]
  EC50: > 150 µM (not active)
[6]
  EC50: > 150 µM (not active)

## O=C(Nc1ccc(-c2csc(-c3ccccc3)n2)cc1)c1ccccc1Cl
[3]
  AC50: 0.0708 µM (inconclusive)
[7]
  EC50: 1.57 µM (active)
[8]
  EC50: 9.89 µM (active)

## COCC(=O)N1CCC2(CC1)CN(Cc1ccccc1OC)C2
[1]; read-out: AC50
  AC50: 39.8 µM (inconclusive)

## C/C(=N/NC(=O)c1ccc(-c2ccccc2)cc1)c1cc(O)cc(O)c1
[9]
  AC50: 2.97 µM (active)

## CO/N=C(/CNC(=O)c1cccc(Cl)c1)c1ccc(Cl)cc1
[10]
  AC50: 25.1 µM (inconclusive)

## CC#CCCCC(=O)Nc1cc(OC)nc(OC)n1
[10]
  AC50: 15.8 µM (inconclusive)

## N=C1/C(=C\c2ccc(OC(=O)c3ccccc3Cl)cc2)C(=O)N=C2SC(N3CCOCC3)=NN12
[4]
  EC50: > 150 µM (not active)
[5]
  EC50: 37.8 µM (active)
[6]
  EC50: > 150 µM (not active)

## COc1ccc(CCNC(=O)COC(=O)c2cnc(C)cn2)cc1
[3]
  AC50: 25.1 µM (inconclusive)
[2]
  AC50: 22.4 µM (inconclusive)
[11]
  AC50: 0.00562 µM (inconclusive)

## COC(=O)[C@@]1(Cc2ccccc2)[C@H]2c3cc(C(=O)N4CCCC4)n(Cc4nc5ccccc5[nH]4)c3C[C@H]2CN1C(=O)c1ccccc1
[3]
  AC50: 12.6 µM (inconclusive)

## O=C1[C@H]2[C@H]3[C@H](O)[C@H](O)C/C(=N/OCc4ccccc4)[C@H]3CC[C@@H]2C(=O)N1Cc1ccc2c(c1)OCO2
[1]; read-out: AC50
  AC50: 2 µM (inconclusive)

## CN1CCc2cc(Cl)c(O)cc2[C@@H](c2ccccc2)C1 [SCH-23390]
[3]
  AC50: 39.8 µM (inconclusive)

## COc1ccc(-c2sc3cc(OC)c(OC)cc3c2C#CC2(O)CCCCC2)cc1
[9]
  AC50: 1.73 µM (active)

## Cc1ccc2c(c1)/C(=C1\SC(N(C)c3ccc(O)cc3)=NC1=O)C(=O)N2
[4]
  EC50: > 150 µM (not active)
[5]
  EC50: 6.59 µM (active)
[6]
  EC50: 16.6 µM (active)

## COCOc1ccc(Br)cc1C(=O)[C@H]1O[C@H]1c1cccc(OC)c1
[10]
  AC50: 3.16 µM (inconclusive)

## O=C(Nc1cccc(Cl)c1N1CCCC1)c1cc2ccccc2o1
[4]
  EC50: 14.3 µM (active)
[5]
  EC50: 8.81 µM (active)
[6]
  EC50: 20.5 µM (active)

## S=c1[nH]cnc2scc(-c3ccc(Cl)cc3)c12
[4]
  EC50: > 150 µM (not active)

## O=C(/C=C/c1ccc(Br)cc1)NC1CCCCCC1
[3]
  AC50: 2 µM (inconclusive)

## COc1ccccc1C(=O)NNC(=O)C(=O)Nc1cccc(Cl)c1C
[4]
  EC50: > 150 µM (not active)
[5]
  EC50: 3.78 µM (active)
[6]
  EC50: 16 µM (active)

## COc1cccc(-c2coc3cc4oc(=O)c(CCC(=O)O)c(C)c4cc23)c1
[4]
  EC50: > 150 µM (not active)
[5]
  EC50: 5.51 µM (active)
[6]
  EC50: 48.5 µM (active)

## CCOc1ccc(NC(=O)N2CCC(C(N)=O)(N3CCCCC3)CC2)cc1
[1]; read-out: AC50
  AC50: 8.91 µM (inconclusive)

## COc1ccc(Cc2nnc(NC(=O)Cn3cnc4c3c(=O)n(C)c(=O)n4C)s2)cc1OC
[1]; read-out: AC50
  AC50: 28.2 µM (inconclusive)
[11]
  AC50: 20 µM (inconclusive)

## C/C(=N\NS(=O)(=O)c1ccc(C)cc1)c1ccc(C)o1
[4]
  EC50: > 150 µM (not active)
[5]
  EC50: > 150 µM (not active)
[6]
  EC50: > 150 µM (not active)

## CCOC(=O)N1CCC(NC(=O)C2CCN(S(=O)(=O)N3CCCC3)CC2)CC1
[1]
  AC50: inconclusive

## CC(C)CN=C(S)NC1CC2CCCC(C1)N2Cc1ccco1 (stereo unspecified)
[1]; read-out: AC50
  AC50: 39.8 µM (inconclusive)

## C[C@@H](CSc1ccc(Br)cc1)CN1CC[C@H](NC(=O)OCc2ccccc2)CCC1=O
[9]
  AC50: 5.92 µM (active)

## C=CCn1c(SCc2ccccc2)nc2scc(-c3ccc(C)o3)c2c1=O
[3]
  AC50: 1.58 µM (inconclusive)

## O=C(c1csnn1)N1CCC2(CCCN(Cc3cc(C(F)(F)F)cc(C(F)(F)F)c3)C2)CC1
[3]
  AC50: 12.6 µM (inconclusive)
[11]
  AC50: 39.8 µM (inconclusive)

## COc1ccc(C2C3=C(CC(C)(C)CC3=O)Oc3ncn(CC(C)C)c(=N)c32)cc1 (stereo unspecified)
[1]; read-out: AC50
  AC50: 39.8 µM (inconclusive)
[11]
  AC50: 39.8 µM (inconclusive)

## CCN(CC)c1cc(C)c2cc(NC(=O)CNC(C)=O)ccc2n1
[1]
  AC50: inconclusive
[11]
  AC50: 0.891 µM (inconclusive)

## Cc1cc2nc(O)c([C@H](C)C(=O)c3ccc(Cl)cc3)nc2cc1C
[3]
  AC50: 0.501 µM (inconclusive)
[1]; read-out: AC50
  AC50: 0.0794 µM (inconclusive)

## Cc1cc(NC(=O)CSc2nc3ccsc3c(=O)n2Cc2ccccn2)[nH]n1
[3]
  AC50: 6.31 µM (inconclusive)

## CCOC(=O)Nc1ccc(C)cc1NC(=O)OCC
[1]; read-out: AC50
  AC50: 14.1 µM (inconclusive)
[11]
  AC50: 25.1 µM (inconclusive)

## ON(CCc1ccncc1)Cc1ccccc1
[10]
  AC50: 6.31 µM (inconclusive)

## COc1cc(OC)cc(-c2sc3ccc(OC)cc3c2C#CCO)c1
[9]
  AC50: 4.83 µM (active)

## O=[N+]([O-])c1ccccc1-c1ccc(C(=S)N2CCN(c3ccccc3)CC2)o1
[9]
  AC50: > 195 µM (inactive)

## CC(=O)NCCNc1ncnc2ccc(-c3ccccc3Cl)cc12
[1]; read-out: AC50
  AC50: 20 µM (inconclusive)

## CCNS(=O)(=O)c1ccc(NS(C)(=O)=O)cc1
[1]
  AC50: inconclusive
[11]
  AC50: 7.94 µM (inconclusive)

## CC(C)CN(C)c1nc(N)c(C(=O)N=C(N)N)nc1Cl [5-(N-METHYL-N-ISOBUTYL)AMILORIDE]
[1]; read-out: AC50
  AC50: 31.6 µM (inconclusive)

## Cc1cc(C(C)(C)C)c(OC(=O)[C@@H]2OC(c3ccccc3)=C[C@H]2c2ccccc2)c(C(C)(C)C)c1
[9]
  AC50: 5.03 µM (active)

## COc1cc(OC)cc(C(=O)NCCNc2nc3cc(C)cc(C)c3cc2C#N)c1
[9]
  AC50: > 195 µM (inactive)

## O=C(Nc1ccc(Cl)cc1C(=O)c1ccccc1Cl)c1ccco1
[3]
  AC50: 2.51 µM (inconclusive)

## COC(=O)[C@@]1(Cc2ccc(OC)cc2)[C@H]2c3cc(C(=O)N4CCCC4)n(CCCNc4ncc(C(F)(F)F)cc4Cl)c3C[C@H]2CN1C(=O)c1ccccc1
[3]
  AC50: 31.6 µM (inconclusive)
[2]
  AC50: 1.26 µM (inconclusive)

## COc1ccc(-c2sc3cc4c(cc3c2-c2ccc(OCCN3CCOCC3)cc2)OCO4)cc1
[9]
  AC50: 0.29 µM (active)

## CCC(COC(=O)NC)NC(=O)Oc1ccccc1 (stereo unspecified)
[3]
  AC50: 39.8 µM (inconclusive)

## O=C(c1cnn2c1NC(c1ccc(Br)cc1)CC2C(F)(F)F)N1CCN2CCCC2C1 (stereo unspecified)
[9]
  AC50: 1.81 µM (active)

## O=C(Nc1ncc(Cc2cccc([N+](=O)[O-])c2)s1)c1ccco1
[9]
  AC50: 1.4 µM (active)

## O=C(O)CCCN1C(=O)/C(=C/c2cn(-c3ccccc3)nc2-c2cccs2)SC1=S
[4]
  EC50: > 150 µM (not active)
[5]
  EC50: 5.9 µM (active)
[6]
  EC50: 7.28 µM (active)

## CCCS(=O)(=O)N1CCCC(C(=O)N2CCOCC2)C1 (stereo unspecified)
[3]
  AC50: 5.01 µM (inconclusive)

## Cn1cc(-c2nc3cncnc3n(Cc3ccccc3Cl)c2=O)c2ccccc21
[3]
  AC50: 3.16 µM (inconclusive)
[2]
  AC50: 7.94 µM (inconclusive)

## CCCCCC1=C2CNC(CC(C)C)(C(=O)OC)C=C2C(C)C1=O (stereo unspecified)
[3]
  AC50: 25.1 µM (inconclusive)
[1]; read-out: AC50
  AC50: 6.31 µM (inconclusive)
[2]
  AC50: 15.8 µM (inconclusive)
